Experiments:
THP-1 cells [1] = assay: XTT cytotoxicity assay, THP-1; assay type: cell-based, human; details: Homo sapiens, THP-1; XTT, 48 h incubation, none in the picture
Method: (§1) The cytotoxic activity test with XTT (sodium 3′-[1-(phenylaminocarbonyl)- 3,4-tetrazolium]-bis (4-methoxy-6-nitro) benzene sulfonic acid hydrate) is a colorimetric method for determining the parameters associated with cell viability. The cytotoxicity in HL-60, THP-1, MOLT-4, and HMEC-1 cells was measured by the XTT assay. XTT is reduced to formazan by the mitochondrial respiratory chain oxidoreductase, which is active only in living cells. The formed crystals of formazan are dissolved directly in the medium. The amount of product is proportional to the number of live cells.
(§2) The IC50 parameter was determined by dividing the mean absorbance values of the drug-treated samples by those of control cells and defined as the drug concentration causing a 50% reduction of cell viability relative to the control. It was calculated using the “Ed50v10(1)” computer application. Cells were plated in 96-well plates at a density of 15 × 10^3 cells in 100 μL culture medium. Drugs were then added at a concentration range of 10 nM–10,000 nM to obtain a final volume of the mixture of 150 μL. Some cells were preincubated with an ATR kinase inhibitor (VE-821) for 1 h at 37 °C before adding the tested compounds. In this case drugs were added at a concentration range of 10 nM–300 nM. For the XTT assay, after 48 h of incubation, the plates were centrifuged at 1,500 rpm for 10 min at 4 °C, the culture medium was removed, and the cells were suspended in 100 mm^3 of HBSS (Hank’s Buffered Salt Solution) containing 140 mM NaCl, 5 mM KCl, 0.8 mM MgCl2, 1.8 mM CaCl2, 1 mM Na2HPO4, 10 mM HEPES (N- (2-hydroxyethyl) -piperazine-N′- (2-ethanesulfonic acid), and 1% glucose at pH 7.4. Then, 50 μL of XTT solution (in PBS) was added to a final concentration of […]. In addition, PMS (phenazine methosulphate) - methyl dibenzo-N-methylpyrazine sulphate (0.383 mg/cm^3) was used, which was combined with XTT solution at a ratio of 1:50. After 4 h of incubation with XTT, absorbance was measured at a wavelength λ = 450 nm and reference wavelength λ = 690 nm with a microplate reader (BioTek, Winooski, VT, USA).

MOLT-4 cells = assay: XTT cytotoxicity assay, MOLT-4; assay type: cell-based, human; details: Homo sapiens, MOLT-4; XTT, 48 h incubation, none in the picture
Method: as §1, §2

HL-60 cells [2] = assay: XTT cytotoxicity assay, HL-60; assay type: cell-based; details: Homo sapiens, 48 h incubation, none in the picture
Method: as §1, §2

HMEC-1 cells = assay: XTT cytotoxicity assay, HMEC-1 (normal dermal endothelium); assay type: cell-based; details: Homo sapiens, 48 h incubation, none in the picture
Method: as §1, §2

[3] = test system: caspase-3/7 in HL-60 cells; assay: Caspase 3/7 assay, HL-60; assay type: cell-based, human; details: HL-60, 48 h
Method: (§3) The activities of caspases-3 and −7 were estimated with CellEvent™ Caspse-3/7 Green Detection Reagent (Thermo Fisher Scientific) according to the manufacturer’s protocol. The cells were seeded on 96-well plates (15 × 10^3/ well) and 24 h later, incubated with the appropriate drugs for 24 h or 48 h. The cells were fixed by adding a final concentration of 4% paraformaldehyde solution (10 min, room temperature). Cells were labeled with CellEvent™Caspase-3/7 Green Detection Reagent (5 µM), followed by Hoechst 33342 (5 µg/ml) for 15 minutes in complete medium3. Caspase-3/7 Green Detection Reagent was diluted into PBS with 5% FBS to avoid fluorescence background. After activation of caspase-3/7 in apoptotic cells, the DEVD peptide was cleaved, enabling the dye to bind DNA, which produced a bright, fluorogenic response with absorption/emission maxima of 502/530 nm according with manufacture protocol. Fluorescence intensity was measured using a Fluoroskan Ascent FL plate reader (Labsystem, Sweden). Cysteine protease activity was expressed as a ratio of fluorescence of the drug-treated samples to the corresponding untreated controls (taken as 100%). In some experimental variants, cells were preincubated for 1 h with VE-821 (10 µM) or Z-FA-FMK (caspas-3 inhibitor, 0.5 µM) to confirm that the fluorescence observed in both control and drug-treated cells was due to the presence of caspase-3/7 in samples. The caspase 3/7 signal was normalized to the Hoechst 33342 staining intensity to account for differences in cell seeding density (description in: Intracellular calcium assay section).

[4] = test system: leukemic cells (HL-60, MOLT-4, THP-1); assay: XTT cytotoxicity assay, leukemic cells overall; assay type: cell-based, human; details: for cytotoxicity (in words): XTT, leukemic cell lines
Method: as §1, §2

HL-60 cells [5] = assay: Comet assay with proteinase K post-treatment (DNA-protein cross-links), HL-60; assay type: cell-based, human; details: HL-60, starting at 2 h of incubation
Method: (§4) Single cell gel electrophoresis (comet assay) was used to detect alkali labile sites, single and double DNA strand breaks, and cross-links induced by genotoxic agents. After electrophoresis and gel staining with 4,6-diamidino-2-phenylindole (DAPI), the released DNA was visible under a fluorescence microscope as a characteristic comet tail. The cells were plated on 24-well plates (20,000 cells/mL) and treated with CLA, CLA-FMOR, CLA-FPIP, or CLA-FPIR at the indicated concentrations for 2, 24, and 48 h at 37 °C. Some cells were preincubated with an ATR kinase inhibitor (VE-821) for 1 h at 37 °C before adding the tested compounds. Next, cells were collected into Eppendorf tubes and rinsed with PBS. Then, cells were suspended in 0.75% low melting point (LMP) agarose dissolved in PBS (pH 7.4) and placed on microscope slides precoated with 0.5% normal melting point (NMP) agarose. Subsequently, the slides were treated with a cooled lysis buffer (2.5 M NaCl, 100 mM EDTA, 10 mM Tris, 1% Triton X-100, pH 9.0) for 1–24 h at 4 °C. Then, slides were placed in developing buffer (300 mM NaOH, 1 mM EDTA) for 20 min. Electrophoresis was performed in […] (30 mM NaOH, 1 mM EDTA) at 29 V and 30 mA for 20 min. The samples were stained with DAPI ([…]). The slides were stored in a wet chamber at 4 °C and analyzed under a fluorescence microscope. Fifty randomly selected cells from each slide were measured using image analysis (Nikon, Japan) attached to a COHU 4910 video camera, which was equipped with a UV-1 filter block consisting of an excitation filter (359 nm) and a barrier filter (461 nm) connected to the image analysis system Lucia-Comet v. 4.51 (Czech Republic)[41]. In the samples preincubated with VE-821, the level of DNA damage associated with the ATR kinase was determined.
Because cross-links can be undetectable in the alkaline comet assay, a variant of this method including post-treatment with proteinase K (Cat no: P2308) was used. Proteinase K digests peptide bonds, releasing the cross-linked DNA […] the DNA-protein complexes without altering the structure of the DNA-DNA complexes to distinguish them. After lysis, the slides were washed three times in TE buffer (10 mM Tris, pH 10, 1 mM EDTA). The cells were treated with aliquots of proteinase K (60 µL per slide; 1 mg/mL TE buffer) for 1 h at 37 °C in a wet chamber. Further steps of the comet assay were performed as described above.

THP-1 cells [6] = assay: Comet assay with proteinase K post-treatment (DNA-protein cross-links), THP-1; assay type: cell-based, human; details: THP-1, 24 h
Method: as §4
Because cross-links can be undetectable in the alkaline comet assay, a variant of this method including post-treatment with proteinase K (Cat no: P2308) was used. […]

dCK in THP-1 cells = assay: Deoxycytidine kinase activity, THP-1; assay type: cell-based, human; details: THP-1, 24 h incubation
Method: (§5) Deoxycytidine kinase activity was measured in accordance with the manufacturer’s protocol. The cells, at final concentration were plated at 1 × 10^6 cells per 24-well plates and cultured with the tested compounds for 24 h. Some cells were preincubated with an ATR kinase inhibitor (VE-821) for 1 h at 37 °C before adding the tested compounds. After drug treatment, the cells were washed with PBS and resuspended in an ice-cold cytosol extraction buffer containing 1 mM phenylmethylsulfonyl fluoride (PMSF) and a protease inhibitor cocktail. The cell lysate was centrifuged at 10,000 × g for 30 min at 4 °C. The protein concentration was determined using the Bradford method. The supernatant (cytosolic fraction) was collected and stored at −80 °C. The clarified cytoplasm extracts, dCK standards, and blank control were added to the appropriate microtiter plate wells with a biotin-conjugated polyclonal antibody prepared specifically for dCK. Avidin conjugated to horseradish peroxidase (HRP) was added to each microplate well and incubated. Then, a TMB substrate solution was added to the plate. […] The enzyme-substrate reaction was terminated by addition of a sulfuric acid solution. The color change was measured spectrophotometrically at a wavelength of 450 nm using a microplate reader (BioTek).

dCK in HL-60 cells = assay: Deoxycytidine kinase activity, HL-60; assay type: cell-based, human; details: HL-60, 24 h incubation
Method: as §5

dCK in MOLT-4 cells = assay: Deoxycytidine kinase activity, MOLT-4; assay type: cell-based, human; details: MOLT-4, 24 h incubation
Method: as §5

γH2AX in HL-60 cells = assay: H2AX (phospho S139) In-Cell ELISA, HL-60; assay type: cell-based, human; details: HL-60, 48 h, versus control cells
Method: The level H2AX protein phosphorylated Ser139 was measured in tested leukemia cells by using of In-Cell ELISA, ICE assay kit. The cells were seeded on 96-well plates (100 × 10^3/well) and 48 h later, incubated with the appropriate compounds. In some experimental variants, cells were preincubated for 1 h with VE-821 (10 µM). The cells were fixed by adding a final concentration of 4% paraformaldehyde solution (10 min, room temperature). After 2 h of Block Solution incubation, cells were treated with a highly specific antibody. A rabbit monoclonal antibody specific to H2AX (phospho S139) was used (at 1:100, 2 h incubation). Next Secondary Antibody Solution (at 1:1000) were added to the cells. The measurements were obtained on a fluorescence plate reader at an excitation wavelength of 680 nm and emission at 694 nm. The cells were PBS washed and 100 µL of Janus Green Stain was added to each well of the plate (5 min., room temperature). The data were collected at excitation wavelength of 750 nm and emission at 800 nm channel (Fluoroskan Cary Eclipse). Antibody signal intensity was normalized to the total amount using Janus Green cell-stain.

[7] = test system: caspase-3/7 in MOLT-4 cells; assay: Caspase 3/7 assay, MOLT-4; assay type: cell-based, human; details: MOLT-4, 48 h
Method: as §3, with “After activation of caspase-3/7 in apoptotic cells, the DEVD peptide was cleaved, enabling the dye to bind DNA, which produced a bright, fluorogenic response with absorption/emission maxima of 502/530 nm according with manufacture protocol.” left out, “The caspase 3/7 signal was normalized to the Hoechst 33342 staining intensity to account for differences in cell seeding density (description in: Intracellular calcium assay section).” left out

[8] = test system: caspase-3/7 in THP-1 cells; assay: Caspase 3/7 assay, THP-1; assay type: cell-based, human; details: THP-1, 48 h
Method: as §3, with “After activation of caspase-3/7 in apoptotic cells, the DEVD peptide was cleaved, enabling the dye to bind DNA, which produced a bright, fluorogenic response with absorption/emission maxima of 502/530 nm according with manufacture protocol.” left out, “The caspase 3/7 signal was normalized to the Hoechst 33342 staining intensity to account for differences in cell seeding density (description in: Intracellular calcium assay section).” left out

Compound	IC50 (THP-1 cells [1])	IC50 (MOLT-4 cells)	IC50 (HL-60 cells [2])	IC50 (HMEC-1 cells)	cytotoxicity (in words) [4]	further results
OC[C@H]1O[C@@H](n2cnc3c(N=CN4CCCCC4)nc(Cl)nc32)C[C@@H]1O [CLA-FPIP, [6-deamino-6-(N′, N′-1′, 5′-pentamethylene formamidine)] cladribine]	0.069 µM	0.11 µM	0.133 µM	0.435 µM	high cytotoxic activity	caspase-3/7 level [3]: highest changes; DNA-protein cross-links after proteinase K (HL-60 cells [5]): increased the level of cross-links; DNA damage in the tail after proteinase K (THP-1 cells [6]): increased
CN(C)C=Nc1nc(Cl)nc2c1ncn2[C@H]1C[C@H](O)[C@@H](CO)O1 [CLA-FDMF, [6-deamino-6-(N′,N′-dimethyl formamidine)] cladribine]	0.22 µM	0.22 µM	0.184 µM	0.412 µM	low cytotoxicity	
CS(=O)(=O)c1ccc(-c2cnc(N)c(C(=O)Nc3ccccc3)n2)cc1 [C+VE-821, reference compound]						dCK activity (dCK in THP-1 cells): decreased dCK activity; dCK activity (dCK in HL-60 cells): decreased dCK activity; dCK activity (dCK in MOLT-4 cells): decreased dCK activity; effect of ATR inhibitor on cytotoxicity of CLA and derivatives ([4]; 10 μM VE-821 preincubation, XTT 48 h): reduces the cytotoxicity of all tested compounds
Nc1nc(Cl)nc2c1ncn2[C@H]1C[C@H](O)[C@@H](CO)O1 [CLA, cladribine, reference compound]	0.056 µM	0.103 µM	0.246 µM	0.126 µM		increase in γH2AX level (γH2AX in HL-60 cells): ~ 2.4 fold
CN1CCN(C=Nc2nc(Cl)nc3c2ncn3[C@H]2C[C@H](O)[C@@H](CO)O2)CC1 [CLA-FPAZ]	0.168 µM	0.353 µM	0.19 µM	0.71 µM	low cytotoxicity	
OC[C@H]1O[C@@H](n2cnc3c(N=CN4CCCCCC4)nc(Cl)nc32)C[C@@H]1O [CLA-FHEX]	0.172 µM	0.348 µM	0.647 µM	1.08 µM	low cytotoxicity	
CC(NC(=O)[C@H](Cc1ccccc1)NC(=O)OCc1ccccc1)C(=O)CF (some centres unmarked) [Z-FA-FMK, reference compound]						caspase-3/7 level [3]: totally prevented caspase activation; caspase-3/7 level [7]: totally prevented caspase activation; caspase-3/7 level [8]: totally prevented caspase activation
